{"source": "paper PMC7536072", "about": "“Molecular and functional characterization of somatostatin-type signalling in a deuterostome invertebrate” (Open Biology, 2020)", "key": {"ArSSR1": {"test_system": "ArSSR1", "test": "GFP-aequorin luminescence receptor activation assay, CHO-K1 cells, ArSSR1 + Gα16", "format": "cell-based, Asterias rubens"}, "ArSSR2": {"test_system": "ArSSR2", "test": "GFP-aequorin luminescence receptor activation assay, CHO-K1 cells, ArSSR2 + Gα16", "format": "cell-based, Asterias rubens"}, "ArSSR3": {"test_system": "ArSSR3", "sequence (as listed by the source)": "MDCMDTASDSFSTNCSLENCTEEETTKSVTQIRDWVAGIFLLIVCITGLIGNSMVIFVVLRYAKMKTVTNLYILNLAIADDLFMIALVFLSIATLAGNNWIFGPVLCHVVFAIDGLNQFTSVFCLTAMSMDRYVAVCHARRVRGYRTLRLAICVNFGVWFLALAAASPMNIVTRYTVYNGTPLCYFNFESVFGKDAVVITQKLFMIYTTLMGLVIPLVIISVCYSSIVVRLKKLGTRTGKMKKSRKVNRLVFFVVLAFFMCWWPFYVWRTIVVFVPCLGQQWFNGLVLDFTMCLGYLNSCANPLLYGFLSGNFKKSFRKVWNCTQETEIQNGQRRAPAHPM", "test": "GFP-aequorin luminescence receptor activation assay, CHO-K1 cells, ArSSR3 + Gα16", "format": "cell-based, Asterias rubens"}, "[1]": {"test_system": "CHO-K1 cells transfected with an empty pcDNA3.1(+) vector", "test": "luminescence control assay, CHO-K1 cells transfected with empty vector", "format": "cell-based, Chinese hamster", "conditions": "10^-12 to 10^-5 M (figure S12), 0.1 % Triton X-100 = 100%", "experimental": "In order to characterize the candidate SS-type receptors, a G-protein-dependent receptor activation assay was employed. Chinese hamster ovary (CHO)-K1 cells stably overexpressing the calcium-sensitive bioluminescent reporter GFP-aequorin fusion protein (G5A) were used as a heterologous expression system. Plasmids containing A. rubens SS-type receptor cDNAs were co-transfected with the promiscuous human Gα16, which is widely used for receptor deorphanization assays. […] After 3 h incubation, a fixed volume of cells was injected sequentially into each well containing different concentrations of peptides using a FLUOstar Omega Plate Reader (BMG LABTECH, Ortenberg, Germany). Luminescence values were recorded over a 35 s period after injection. The total luminescence of each well over the 35 s period was calculated and normalized to the maximum value obtained in each experiment (100% activation) and to the value obtained with the vehicle media (0% activation). […] EC50 values were calculated from dose–response curves using Prism 6. The luminescence responses triggered by 10^−5 M ArSS1, 10^−5 M ArSS2 and vehicle media were analysed by one-way ANOVA using Bonferroni's multiple comparisons post hoc test in Prism 6. […]"}, "[2]": {"test_system": "cardiac stomach of A. rubens", "test": "in vivo cardiac stomach eversion after injection into the perivisceral coelom", "set-up": "species or system Asterias rubens", "conditions": "n = 10", "experimental": "When starfish (A. rubens) feed, the cardiac stomach is relaxed and everted out of the mouth over the digestible soft tissues of prey (e.g. mussels). […] Therefore, because ArSS2 causes relaxation of cardiac stomach preparations in vitro, we investigated if ArSS2 also triggers cardiac stomach eversion when injected in vivo. Firstly, 15 medium-sized starfish were starved for one week to normalize their physiological status. A Hamilton […] 50 μl syringe (Sigma-Aldrich; Gillingham, UK) was used to inject 10 μl 1 mM ArSS2, or 10 μl 1 mM asterotocin (positive control) or 10 μl water (negative control) into the […] coelom of starfish. ArSS2 was tested on five individuals firstly and then the next day, asterotocin was tested on the same batch of five individuals. For another five individuals, asterotocin was tested first and then ArSS2 was tested on the following day. The remaining five individuals were injected with water as a control. Thus, both ArSS2 and asterotocin were tested on ten starfish. For each starfish, the test agent was injected via two sites in the dorsal body wall of the arms proximal to the junctions with the central disc region. Care was taken to inject test agents into the […] coelom and not into the cardiac stomach."}, "[3]": {"conditions": "10 µl 10^−3 M into perivisceral coelom"}}, "note": "pEC50: −log10 of the molar value. “Also recorded” adds a separate entry of the source. Bridges are numbered along the chain shown (N, C = ends). Where no end group is shown, it is not given here.", "data": [{"sequence": "RAKNARCMADFWKGRGLVDC (disulfide 7-20 (inferred)) [ArSS2]", "values": [{"measurement": "pEC50", "setting": "ArSSR1; ArSSR1 + Gα16 in CHO-K1 cells expressing GFP-aequorin (G5A), peptide 10^−21 to 10^−4 M, luminescence over 35 s, mean of at least three independent experiments, three repeats each, read-out: half-maximal response concentration (EC50)", "value": 10.06}, {"measurement": "luminescence compared with control", "setting": "ArSSR1; ArSSR1, 10^−5 M, vs BSA media (control) and, for ArSS2, vs ArSS1, one-way ANOVA, Bonferroni", "value": "significantly higher than the luminescence in cells exposed to ArSS1 or BSA media (control)"}, {"measurement": "triggering of luminescence", "setting": "ArSSR1; ArSSR1, 10^−21 to 10^−4 M", "value": "caused dose-dependent luminescence"}, {"measurement": "efficacy compared between receptors", "setting": "ArSSR1; ArSSR1 and ArSSR2 vs ArSSR3, 10^−5 M", "value": "higher for ArSSR1 and ArSSR2 than for ArSSR3"}, {"measurement": "pEC50", "setting": "ArSSR2; ArSSR2 + Gα16 in CHO-K1 cells expressing GFP-aequorin (G5A), peptide 10^−21 to 10^−4 M, luminescence over 35 s, mean of at least three independent experiments, three repeats each, read-out: half-maximal response concentration (EC50)", "value": 11.38}, {"measurement": "mean total luminescence response relative to background", "setting": "ArSSR2; ArSSR2, 10^−5 M, background detected with assay media or with ArSS1", "value": "166 303 times the background luminescence"}, {"measurement": "luminescence compared with control", "setting": "ArSSR2; ArSSR2, 10^−5 M, vs BSA media (control) and, for ArSS2, vs ArSS1, one-way ANOVA, Bonferroni", "value": "significantly higher than the luminescence in cells exposed to ArSS1 or BSA media (control)"}, {"measurement": "triggering of luminescence", "setting": "ArSSR2; ArSSR2, 10^−21 to 10^−4 M", "value": "caused dose-dependent luminescence"}, {"measurement": "pEC50", "setting": "ArSSR3; ArSSR3 + Gα16 in CHO-K1 cells expressing GFP-aequorin (G5A), peptide 10^−21 to 10^−4 M, luminescence over 35 s, mean of at least three independent experiments, three repeats each, read-out: half-maximal response concentration (EC50)", "value": 8.85}, {"measurement": "mean total luminescence response relative to background", "setting": "ArSSR3; ArSSR3, 10^−5 M, background detected with assay media or with ArSS1", "value": "46 575 times the background luminescence"}, {"measurement": "luminescence compared with control", "setting": "ArSSR3; ArSSR3, 10^−5 M, vs BSA media (control) and, for ArSS2, vs ArSS1, one-way ANOVA, Bonferroni", "value": "significantly higher than the luminescence in cells exposed to ArSS1 or BSA media (control)"}, {"measurement": "triggering of luminescence", "setting": "ArSSR3; ArSSR3, 10^−21 to 10^−4 M", "value": "caused dose-dependent luminescence"}, {"measurement": "luminescence response in cells with empty vector", "setting": "[1]", "value": "do not trigger luminscence; also recorded: Neither ArSS1 nor ArSS2 elicited responses"}, {"measurement": "mean maximal eversion, area of everted cardiac stomach", "setting": "[2]; 10 µl 10^−3 M into perivisceral coelom, 10 min recording", "value": "approximately 10 % of the area of the central disc region"}, {"measurement": "incidence of cardiac stomach eversion", "setting": "[2]; [3]", "value": "all of the animals"}, {"measurement": "time of mean maximal eversion after injection", "setting": "[2]; [3]", "value": "approximately 4 min"}, {"measurement": "magnitude of cardiac stomach eversion compared with asterotocin", "setting": "[2]; 10 µl 10^−3 M", "value": "much less than that induced by asterotocin"}]}]}
